Tests used:
[1] = system: premature heart contractions; assay: oral antiarrhythmic activity in rats using aconitine (dose of aconitine to first extrasystoles); assay type: in vivo; conditions: 75 mg/kg, 75 minutes before aconitine perfusion, acid addition salts; for % Activity versus Lidocaine: relative to lidocaine; for % Activity versus Procainamide: relative to procainamide
Method: The method used for these tests is described hereafter:
Male or female rats with a body-weight ranging from 380 to 450 g.
3.12 μg aconitine nitrate/1 ml physiological saline.
Solution of the compound to be tested:
0.75% in distilled water.
Six random selected animals are required for each compound to be tested. The compound is administered by oral route at the dose of 75 mg/kg (1 ml of the 0.75% solution/100 g of body-weight) 75 minutes before the intravenous perfusion of the aconitine solution is initiated.
Control groups of animals are treated only with distilled water (1 ml/100 g).
60 minutes after the administration of the compound to be tested, the animals are anesthesized by an intraperitoneal injection of Pentobarbital (50 mg/kg) and the jugular vein is dissected.
A catheter is introduced in the vein and fixed by a ligature.
The ECG (D II derivation) is then continuously recorded. The perfusion of the aconitine solution is started 75 minutes after the administration of the compound to be tested.
The volume delivered by the injection device being 0.287 ml/minute, the dose of aconitine nitrate administered is 0.895 μg/minute (0.20 - 0.24 μg/100 g/minute according to the minimal and maximal weight of the animals).
The experience is stopped as soon as the first extrasystoles are appearing and the time elapsed from the beginning of the perfusion is noted.
The results are expressed as the mean total dose of aconitine injected in a group of animals.
The relative activity between a tested compound and a reference substance (lidocaine, procainamide) is computed in the following way: [formula] where: A(x) = activity of tested compound X (in %)
X = mean dose of aconitine in the animals treated by compound X
C = mean dose of aconitine injected in the untreated animals (controls)
R = mean dose of aconitine injected in the animals treated by the reference substances.

[2] = system: tachycardias and fibrillation of ventricular origin; conditions: cited from earlier work; for oral activity: known antiarrhythmic agents, in words

Row | Structure (SMILES) | % Activity versus Lidocaine [1] [%] | % Activity versus Procainamide [1] [%] | oral activity [2] | side effects [2]
1 | CCN(CC)CCN(c1ccccc1)C1CCc2ccccc2C1 (stereo not drawn) [1 H2 H N-diethyl, 2-[N-phenyl-N-(β-diethylaminoethyl)]-amino(1,2,3,4-tetrahydronaphthalene)] | 439 | 560 |  | 
2 | CCN(CC)CCN(c1ccccc1)C1CCc2cc(OC)ccc2C1 (stereo not drawn) [1 H2 OCH3 N-diethyl, 2-[N-phenyl-N-(β-diethylaminoethyl)]-amino-6-methoxy-(1,2,3,4-tetrahydronaphthalene)] | 173 | 220 |  | 
3 | COc1ccc2c(c1)CCC(N(CCN(C)C)c1ccccc1)C2 (stereo not drawn) [1 H2 OCH3 N-dimethyl, 2-[N-phenyl-N-(β-dimethylaminoethyl)]-amino-6-methoxy-(1,2,3,4-tetrahydronaphthalene)] | 57 | 72 |  | 
4 | COc1ccc2c(c1)CCC(N(CCN1CCCCC1)c1ccccc1)C2 (stereo not drawn) [1 H2 OCH3 piperidino, 2-[N-phenyl-N-(β-piperidinoethyl)]-amino-6-methoxy-(1,2,3,4-tetrahydronaphthalene)] | 103 | 131 |  | 
5 | CNCCC(=O)N(c1ccccc1)C1CCc2ccccc2C1 (stereo not drawn) [2 0 H NH-methyl, 2-[N-phenyl-N-(β-methylaminopropionyl)]-amino-(1,2,3,4-tetrahydronaphthalene)] | 769 | 982 |  | 
6 | CCN(CC)CCCN(c1ccccc1)C1CCc2ccccc2C1 (stereo not drawn) [2 H2 H N-diethyl, 2-[N-phenyl-N-(γ-diethylaminopropyl)]-amino-(1,2,3,4-tetrahydronaphthalene)] | 563 | 719 |  | 
7 | CN(C)CCCN(c1ccccc1)C1CCc2ccccc2C1 (stereo not drawn) [2 H2 H N-dimethyl, 2-[N-phenyl-N-(γ-dimethylaminopropyl)]-amino-(1,2,3,4-tetrahydronaphthalene)] | 41 | 52 |  | 
8 | CCNCCCN(c1ccccc1)C1CCc2ccccc2C1 (stereo not drawn) [2 H2 H NH-ethyl, 2-[N-phenyl-N-(γ-ethylaminopropyl)]-amino-(1,2,3,4-tetrahydronaphthalene)] | 703 | 897 |  | 
9 | CNCCCN(c1ccccc1)C1CCc2ccccc2C1 (stereo not drawn) [2 H2 H NH-methyl, 2-[N-phenyl-N-(γ-methylaminopropyl)]-amino-(1,2,3,4-tetrahydronaphthalene)] | 288 | 368 |  | 
10 | c1ccc(N(CCCN2CCCCC2)C2CCc3ccccc3C2)cc1 (stereo not drawn) [2 H2 H piperidino, 2-[N-phenyl-N-(γ-piperidinopropyl)]-amino-(1,2,3,4-tetrahydronaphthalene)] | 62 | 78 |  | 
11 | c1ccc(N(CCCN2CCCC2)C2CCc3ccccc3C2)cc1 (stereo not drawn) [2 H2 H pyrrolidino, 2-[N-phenyl-N-(γ-pyrrolidinopropyl)]-amino-(1,2,3,4-tetrahydronaphthalene)] | 268 | 342 |  | 
12 | CCN(CC)CCCN(c1ccccc1)C1CCc2cc(OC)ccc2C1 (stereo not drawn) [2 H2 OCH3 N-diethyl, 2-[N-phenyl-N-(γ-diethylaminopropyl)]-amino-6-methoxy-(1,2,3,4-tetrahydronaphthalene)] | 96 | 123 |  | 
13 | CCN(CC)CC(=O)Nc1c(C)cccc1C [lidocaine] |  |  | too low | 
14 | CCN(CC)CCNC(=O)c1ccc(N)cc1 [procainamide] |  |  | too short | hypotension

From patent US3943172A, “Derivatives of 2-amino-(1,2,3,4-tetrahydronaphthalene), the preparation and use thereof” (priority 1972, dated 1976)
